Measurements from US9145414B2, “1,2,4-triazine-6-carboxamide derivative” (TAIHO PHARMACEUTICAL CO., LTD., priority 2011, dated 2015).
Where two headings read alike, the source gives them in different places.

Key:
[1] = tested on: SU-DHL-6 cells (diffuse large-cell lymphoma cell line); assay: Cell growth inhibition test; format: cell-based; settings: SU-DHL-6 cells, 3 days culture, Table 96, read-out: Cell growth inhibition IC50
Experimental: The compound of the present invention was serially diluted with dimethyl sulfoxide and then added to an RPMI1640 medium containing 10% FBS. Each resulting solution was added at a concentration of 100 μl/well to the preceding SU-DHL-6 cell culture plate (final concentration of the compound: 10, 3, 1, 0.3, 0.1, 0.03, 0.01, and 0.003 μM). The cells were cultured at 37° C. for 3 days in an incubator containing 5% CO2. The cells thus cultured were left at room temperature for 30 minutes and then centrifuged at 1500 rpm for 3 minutes using a centrifuge (Hitachi Koki Co., Ltd., Himac CF7D2). A 100 μl aliquot of the supernatant was removed from each well to allow 100 μl of the cell culture solution to remain therein. This 100 μl of the remaining cell culture solution was supplemented with an equal amount of CellTiter-Glo Luminescent Cell Viability Assay (Promega KK, Cat#: G7573), and the mixture was then shaken for 1 minute using a plate mixer. The reaction solution was left in the dark for 10 minutes. Then, luminescence intensity derived from live cells of each well was measured using a microplate reader (PerkinElmer Inc., ARVOsx). […] Likewise, the IC50 values (μM) of the control compounds were also calculated and then compared with that of the compound of the present invention. Rate of cell growth inhibition(%)=(C−T)/C×100 T: luminescence intensity (count per second) of a well supplemented with the test compound C: luminescence intensity (count per second) of a well non-supplemented with the test compound

human Syk protein = human Syk protein (Homo sapiens (Human), UniProt P43405); assay: Syk kinase inhibition test; format: biochemical; settings: Table 95; read-out: SYK inhibitory activity IC50
Experimental: Finally, phosphorylated peptides and non-phosphorylated peptides were separated therebetween using LabChip™ 3000 system (Caliper Life Sciences, Inc., excitation wavelength: 488 nm, detection wavelength: 530 nm). Their respective amounts were measured, and the rate of phosphorylation reaction was then determined from the ratio between the amounts. The concentration at which the compound can inhibit 50% phosphorylation reaction is defined as an IC50 value (μM).
Also, known 1,2,4-triazine-6-carboxamide derivatives A, B, and C (WO2000/075113 (A: compound No. 121 and B: compound No. 154) and WO2000/076980 (C: compound No. 39)) were synthesized as control compounds. Their IC50 values (μM) were calculated in the same way as above and then compared with that of the compound of the present invention.

Row | SMILES | IC50 ([1]; Homo sapiens, 72 h) [nM] | IC50 (human Syk protein) [nM] | IC50 [1] [nM]
1 | NC(=O)c1nnc(N[C@@H]2CCOC[C@@H]2N)nc1Nc1cccc2c1ccn2C1CCC1 [Example 277] | 181 | 0.41 | –
2 | Cc1cccc(Nc2cc(NCCN(C)C)ccc2C(N)=O)c1 [C, reference compound] | – | 620 | > 10000
3 | CCn1cc2ccc(Nc3nc(N[C@@H]4CCCCC[C@@H]4N)nnc3C(N)=O)cc2n1 [Example 316, 3-(((1R,2S)-2-aminocycloheptyl)amino)-5-((2-ethyl-2H-indazol-6-yl)amino)-1,2,4-triazine-6-carboxamide] | – | 0.31 | –
4 | COC[C@H](N)[C@@H](C)Nc1nnc(C(N)=O)c(Nc2cc(C)cc3c2ccn3C)n1 [Example 256, 3-(((2R,3R)-3-amino-4-methoxybutan-2-yl)amino)-5-((1,6-dimethyl-1H-indol-4-yl)amino)-1,2,4-triazine-6-carboxamide] | 157 | 0.35 | –
5 | NC(=O)c1nnc(N[C@@H]2CCCC[C@@H]2N)nc1Nc1ccc2cnn(C(F)F)c2c1 [Example 165] | 177 | 0.36 | –
6 | Cc1cc(Nc2nc(N[C@@H]3CCCC[C@@H]3N)nnc2C(N)=O)cc2nn(C)cc12 [Example 91, 3-(((1R,2S)-2-aminocyclohexyl)amino)-5-((2,4-dimethyl-2H-indazol-6-yl)amino)-1,2,4-triazine-6-carboxamide diformate] | 138 | 0.26 | –
7 | Cc1cc(Nc2nc(N[C@@H]3CCCC[C@@H]3N)nnc2C(N)=O)cc2nn(C(F)F)cc12 [Example 265, 3-(((1R,2S)-2-aminocyclohexyl)amino)-5-((2-(difluoromethyl)-4-methyl-2H-indazol-6-yl)amino)-1,2,4-triazine-6-carboxamide] | 125 | 0.5 | –
8 | CC(C)(C)n1cc2cc(Nc3nc(N[C@@H]4CCCC[C@@H]4N)nnc3C(N)=O)cc(-n3cccn3)c2n1 [Example 66, 3-(((1R,2S)-2-aminocyclohexyl)amino)-5-((2-(tert-butyl)-7-(1H-pyrazol-1-yl)-2H-indazol-5-yl)amino)-1,2,4-triazine-6-carboxamide] | – | 0.61 | –
9 | CCOC[C@H](N)[C@@H](C)Nc1nnc(C(N)=O)c(Nc2cc(C)c3ncccc3c2)n1 [Example 282] | – | 0.48 | –
10 | CCn1nc(C)c2ccc(Nc3nc(N[C@@H]4CCCC[C@@H]4N)nnc3C(N)=O)cc21 [Example 50, 3-((1R,2S)-2-aminocyclohexylamino)-5-(1-ethyl-3-methyl-1H-indazol-6-ylamino)-1,2,4-triazine-6-carboxamide] | – | 0.42 | –
11 | CCn1ncc2c(C)cc(Nc3nc(N[C@@H]4CCCC[C@@H]4N)nnc3C(N)=O)cc21 [Example 97, 3-(((1R,2S)-2-aminocyclohexyl)amino)-5-((1-ethyl-4-methyl-1H-indazol-6-yl)amino)-1,2,4-triazine-6-carboxamide] | 191 | 0.39 | –
12 | NC(=O)c1nnc(N[C@@H]2CCCC[C@@H]2N)nc1Nc1ccc2ncccc2c1 [Example 1, 3-((1R,2S)-2-aminocyclohexylamino)-5-(quinolin-6-ylamino)-1,2,4-triazine-6-carboxamide] | – | 0.4 | –
13 | NC(=O)c1nnc(N[C@@H]2CCCC[C@@H]2N)nc1Nc1ccc2nn(C3CCC3)cc2c1 [Example 11, 3-((1R,2S)-2-aminocyclohexylamino)-5-(2-cyclobutyl-2H-indazol-5-ylamino)-1,2,4-triazine-6-carboxamide] | – | 0.47 | –
14 | NC(=O)c1nnc(N[C@@H]2CCCC[C@@H]2N)nc1Nc1cccc2sccc12 [Example 2, 3-((1R,2S)-2-aminocyclohexylamino)-5-(benzo[b]thiophen-4-ylamino)-1,2,4-triazine-6-carboxamide] | – | 0.46 | –
15 | CCn1ccc2c(Nc3nc(N[C@@H]4CCCC[C@@H]4N)nnc3C(N)=O)cccc21 [Example 17, 3-((1R,2S)-2-aminocyclohexylamino)-5-(1-ethyl-1H-indol-4-ylamino)-1,2,4-triazine-6-carboxamide] | 76 | – | –
16 | [2H]C([2H])([2H])C([2H])([2H])n1ncc2cc(Nc3nc(N[C@@H]4CCCC[C@@H]4N)nnc3C(N)=O)ccc21 [Example 5, 3-((1R,2S)-2-aminocyclohexylamino)-5-(1-(ethyl-d5)-1H-indazol-5-ylamino)-1,2,4-triazine-6-carboxamide] | – | 0.52 | –

Row | SMILES | IC50 ([1]; Homo sapiens, 72 h) [nM] | IC50 (human Syk protein) [nM] | IC50 [1] [nM]
17 | Cc1cc2c(Nc3nc(N[C@@H]4CCCC[C@@H]4N)nnc3C(N)=O)cccc2n1C1CC1 [Example 33, 3-((1R,2S)-2-aminocyclohexylamino)-5-(1-cyclopropyl-2-methyl-H-indol-4-ylamino)-1,2,4-triazine-6-carboxamide] | – | 0.71 | –
18 | CCn1ncc2cc(Nc3nc(N[C@H](C)[C@@H](N)COC)nnc3C(N)=O)cc(C)c21 [Example 311, 3-(((2R,3R)-3-amino-4-methoxybutan-2-yl)amino)-5-((1-ethyl-7-methyl-1H-indazol-5-yl)amino)-1,2,4-triazine-6-carboxamide] | – | 0.55 | –
19 | Cn1ccc(-n2ccc3c(Nc4nc(NCC5(N)CCC5)nnc4C(N)=O)cccc32)n1 [Example 106, 3-(((1-aminocyclobutyl)methyl)amino)-5-((1-(1-methyl-1H-pyrazol-3-yl)-1H-indol-4-yl)amino)-1,2,4-triazine-6-carboxamide] | – | 0.85 | –
20 | CCn1nc(C)c2cc(Nc3nc(N[C@@H]4CCCC[C@@H]4N)nnc3C(N)=O)ccc21 [Example 56, 3-((1R,2S)-2-aminocyclohexylamino)-5-(1-ethyl-3-methyl-1H-indazol-5-ylamino)-1,2,4-triazine-6-carboxamide] | – | 0.5 | –
21 | Cc1cc(Nc2nc(N[C@@H]3CCOC[C@@H]3N)nnc2C(N)=O)cc2cn(C(C)(C)CO)nc12 [Example 99, 3-(((3R,4R)-3-aminotetrahydro-2H-pyran-4-yl)amino)-5-((2-(1-hydroxy-2-methylpropan-2-yl)-7-methyl-2H-indazol-5-yl)amino)-1,2,4-triazine-6-carboxamide] | – | 0.63 | –
22 | COC[C@H](N)[C@@H](C)Nc1nnc(C(N)=O)c(Nc2cc(C)c3c(cnn3C(C)C)c2)n1 [Example 284] | – | 0.34 | –
23 | NC(=O)c1nnc(N[C@@H]2CCCC[C@@H]2N)nc1Nc1cc(-c2ncccn2)cs1 [Example 76, 3-(((1R,2S)-2-aminocyclohexyl)amino)-5-((4-(pyrimidin-2-yl)thiophen-2-yl)amino)-1,2,4-triazine-6-carboxamide] | – | 0.55 | –
24 | NC(=O)c1nnc(N[C@@H]2CCCC[C@@H]2N)nc1Nc1cccc2nn(C(F)F)cc12 [Example 209] | – | 0.33 | –
25 | N#Cc1cc(Nc2nc(N[C@@H]3CCCC[C@@H]3N)nnc2C(N)=O)c2ccsc2c1 [Example 208] | – | 0.4 | –
26 | NC(=O)c1nnc(N[C@@H]2CCCC[C@@H]2N)nc1Nc1cncc(C2CC2)c1 [Example 16, 3-((1R,2S)-2-aminocyclohexylamino)-5-(5-cyclopropylpyridin-3-ylamino)-1,2,4-triazine-6-carboxamide] | – | 0.94 | –
27 | CC(C)(C)n1cc2cc(Nc3nc(N[C@@H]4CCOC[C@@H]4N)nnc3C(N)=O)cc(Cl)c2n1 [Example 100, 3-(((3R,4R)-3-aminotetrahydro-2H-pyran-4-yl)amino)-5-((2-(tert-butyl)-7-chloro-2H-indazol-5-yl)amino)-1,2,4-triazine-6-carboxamide] | – | 0.41 | –
28 | COc1ccc2sc(Nc3nc(N[C@@H]4CCCC[C@@H]4N)nnc3C(N)=O)c(C)c2c1 [Example 48, 3-((1R,2S)-2-aminocyclohexylamino)-5-(5-methoxy-3-methylbenzo[b]thiophen-2-ylamino)-1,2,4-triazine-6-carboxamide] | – | 0.27 | –
29 | CCn1ncc2c(Nc3nc(N[C@@H]4CCCC[C@@H]4N)nnc3C(N)=O)cccc21 [Example 107, 3-(((1R,2S)-2-aminocyclohexyl)amino)-5-((1-ethyl-1H-indazol-4-yl)amino)-1,2,4-triazine-6-carboxamide] | – | 0.61 | –
30 | CCn1ncc2c(C)cc(Nc3nc(N[C@@H]4CCOC[C@@H]4N)nnc3C(N)=O)cc21 [Example 310] | – | 0.59 | –
31 | Cn1cc(-c2cc(Nc3nc(N[C@@H]4CCCC[C@@H]4N)nnc3C(N)=O)c3cnn(C)c3c2)cn1 [Example 13, 3-((1R,2S)-2-aminocyclohexylamino)-5-(1-methyl-6-(1-methyl-1H-pyrazol-4-yl)-1H-indazol-4-ylamino)-1,2,4-triazine-6-carboxamide] | – | 0.49 | –
32 | Cc1cc(Nc2nc(N[C@@H]3CCCC[C@@H]3N)nnc2C(N)=O)cc2cn(C(F)F)nc12 [Example 62, 3-(((1R,2S)-2-aminocyclohexyl)amino)-5-((2-(difluoromethyl)-7-methyl-2H-indazol-5-yl)amino)-1,2,4-triazine-6-carboxamide] | – | 0.37 | –
